One data set has as its system PC12 cells. The experiment in a line: Cytotoxicity in PC12 cells. It is filed as cell-based, rat. Conditions: FIG. 1 / Table 2. On the procedure:
(§1) C2C12 Mouse myoblasts [American Type Culture Collection (ATCC) CRL-1772] were cultured to proliferate in DMEM supplemented with 20% FBS and 100 Penicillin Streptomycin. Cell culture supplies were obtained from Invitrogen, unless otherwise noted. Cells were plated at 50,000 cells per mL in DMEM with 2% horse serum and 1% Penn Strep, and left to differentiate into myotubules for 10-14 days. During differentiation, media were exchanged every 2 to 3 days. Cell viability and proliferation were studied after exposures to drugs for up to 24 h. PC12 cells (ATCC, CRL-1721) originating from rat adrenal gland pheochromocytoma were grown in 24-well tissue culture dishes (CellBind; Corning) with F-12K (ATCC) supplemented with 12.5% horse serum (Gibco), 2.5% FBS (Gibco), and 1% Penn Strep (Sigma). For neuronal induction (PC12), cells were seeded at a relative low density of 5×10^4 cells/cm2 and 50 ng/mL NGF was added 24 h after seeding. Cell viability and proliferation were evaluated as for C2C12 cells. Experiments with PC12 cells were conducted for up to 24 hours.

Data set [1] relates to sciatic nerve. The experiment in a line: Sciatic nerve block in rats: duration of motor block, weight-bearing test. It is filed as in vivo. Conditions: rat sciatic nerve injection 0.3 mL. The text has this: (§2) Sciatic Nerve Block and Neurobehavioral Testing. Animals were cared for in compliance with protocols approved by the Children's Hospital Animal Care and Use Committee, and the Massachusetts Institute of Technology Committee on Animal Care, which conformed to guidelines of the International Association for the Study of Pain. Adult male Sprague-Dawley rats (Charles River Laboratories) weighing 320-450 g were housed in groups, in a 6 AM to 6 PM light-dark cycle. Under brief isoflurane-oxygen anesthesia, a 23G needle was introduced postero-medial to the greater trochanter, until bone was contacted, and 0.3 mL of test solution was injected over the sciatic nerve. Thermal nociception was assessed by a modified hotplate test, and motor function via a weight-bearing test. […] Motor strength was assessed with a weight-bearing test. In brief, the animal was held over a digital balance such that it could bear weight with 1 hind paw at a time. The maximum weight that it could bear was recorded. The duration of motor blockade was defined as the time for weight bearing to return halfway to normal from maximal block. The halfway point for each rat was defined as […].

Another data set concerns C2C12 Mouse myoblasts. The experiment in a line: Cytotoxicity in C2C12 myotubules. The format is cell-based. Conditions: C2C12 cells, FIG. 2 / Table 2. The procedure: as §1
The subject of data set [2] is sciatic nerve. Nature of the data set: Sciatic nerve block in rats: duration of thermal nociceptive (sensory) block, modified hotplate test. The format is in vivo, rat. The conditions noted are these: for Sensory:Motor Block Ratio: rat sciatic nerve block; for Block Duration (min) Sensory: rat sciatic nerve injection 0.3 mL.
From the text: as §2

SMILES strings stand for the structures.

On to `CCC[N@+]1(CC(=O)OC)CCCC[C@H]1C(=O)Nc1c(C)cccc1C.[Br-]` (racemic) [4Sa + 4Sb, 2-((2,6-Dimethylphenyl)carbamoyl)-1-(2-methoxy-2-oxoethyl)-1-propylpiperidin-1-ium bromide], for which the “cytotoxicity compared with ropivacaine and bupivacaine (in words)” value was “significantly less cytotoxic than ropivacaine and bupivacaine” with PC12 cells; “significantly less cytotoxic than ropivacaine and bupivacaine” in the data set with C2C12 Mouse myoblasts. Also, the “Block Duration (min) Motor” value in the data set with sciatic nerve [1] (dose conc 5 mM) stood at 0 min; in the data set on sciatic nerve [1] (dose conc 7.5 mM), 10 ± 10 min; in the data set with sciatic nerve [1] (dose conc 10 mM) it was 78 ± 24 min; in the data set with sciatic nerve [1] (dose conc 15 mM) it was 69 ± 20 min. In addition, the “Sensory:Motor Block Ratio” value in the data set with sciatic nerve [2] (dose conc 5 mM) is listed as “∞”. For the same compound, the “Block Duration (min) Sensory” value is recorded as 34 ± 13 min with sciatic nerve [2] (dose conc 5 mM), 108 ± 27 min in the data set on sciatic nerve [2] (dose conc 7.5 mM), 220 ± 40 min in the data set with sciatic nerve [2] (dose conc 10 mM) and 254 ± 48 min with sciatic nerve [2] (dose conc 15 mM).
Regarding `CCC[N+]1(COC(C)=O)CCCC[C@H]1C(=O)Nc1c(C)cccc1C.[Br-]` (some centres unmarked) [Compound 10S, 1-(Acetoxymethyl)-2-((2,6-dimethylphenyl)carbamoyl)-1-propylpiperidin-1-ium bromide], the “cytotoxicity compared with ropivacaine and bupivacaine (in words)” value in the data set on PC12 cells was “significantly less cytotoxic than ropivacaine and bupivacaine”; with C2C12 Mouse myoblasts, “significantly less cytotoxic than ropivacaine and bupivacaine”. The “Block Duration (min) Motor” value in the data set on sciatic nerve [1] (dose conc 5 mM) amounted to 15 ± 15 min; in the data set with sciatic nerve [1] (dose conc 10 mM), 65 ± 34 min. Besides, the “Block Duration (min) Sensory” value in the data set with sciatic nerve [2] (dose conc 5 mM) came out at 55 ± 23 min; with sciatic nerve [2] (dose conc 10 mM) it was 105 ± 53 min.
For the compound `CCCC[N@+]1(CC(=O)OC)CCCC[C@H]1C(=O)Nc1c(C)cccc1C` (racemic) [2a + 2b, 1-Butyl-2-((2,6-dimethylphenyl)carbamoyl)-1-(2-methoxy-2-oxoethyl)piperidin-1-ium bromide], the “cytotoxicity compared with ropivacaine and bupivacaine (in words)” value was “significantly less cytotoxic than ropivacaine and bupivacaine” with PC12 cells; “significantly less cytotoxic than ropivacaine and bupivacaine” with C2C12 Mouse myoblasts. In addition, the “Block Duration (min) Motor” value in the data set on sciatic nerve [1] (dose conc 5 mM) worked out at 0 min; in the data set on sciatic nerve [1] (dose conc 7.5 mM) it was 30 ± 15 min; with sciatic nerve [1] (dose conc 10 mM), 50 ± 23 min. Further, the “Sensory:Motor Block Ratio” value in the data set on sciatic nerve [2] (dose conc 5 mM) was “∞”. For the same compound, the “Block Duration (min) Sensory” value with sciatic nerve [2] (dose conc 5 mM) was 30 ± 12 min; in the data set on sciatic nerve [2] (dose conc 7.5 mM), 120 ± 34 min; in the data set with sciatic nerve [2] (dose conc 10 mM), 150 ± 51 min.

The record behind these values is patent US12454509B2, “Local anesthetics with selective-sensory nerve blockade” (Children's Medical Center Corporation, priority 2019, dated 2025).
